Reference: patent US9901621B2, “Composition for treating hyperlipidemia comprising oxyntomodulin derivative” (HANMI PHARM. CO., LTD., priority 2012, dated 2018)
Where a SMILES comes first, the peptide text is derived from it. [ ]: non-standard residue; d: D form. Aib = CC(C)(N)C(=O)O

Legend:
[1] = tested on: high-fat diet-induced hyperlipidemia hamsters; assay: Reduction in lipid levels in hyperlipidemia model hamsters (Example 5); assay type: in vivo, Golden Syrian hamsters; conditions: vs high-fat diet group, s.c. once a week for 2 weeks, 3.25 nmol/kg SEQ ID NO: 25-Fc or 8.96 nmol/kg SEQ ID NO: 23-Fc
Text: 8 week-old male hamsters (Golden Syrian hamsters, 120-130 g) were purchased from Vital River China. It is known that hamsters show blood lipid profiles similar to humans, unlike other rodents, and are sensitive to high-fat diets.
The animals were allowed access to a sterilized high-fat diet (Purina 5001 containing 11.5% maize oil, 11.5% coconut oil, 0.5% cholesterol, and 0.25% deoxycholate; Dyets, Bethlehem, Pa.) or a standard rodent diet (low fat, 2018; Harlan Teklad, Madison, Wis.). A normal diet group was allowed access to filtered and UV-sterilized tap water, and a high-fat diet group was allowed access to water containing 10% fructose. The animals were kept in a breeding chamber satisfying GLP standards under a 12-hr light/12-hr dark cycle (lighting: am 6 to pm 6), and all the experimental procedures were performed according to the standard guideline for animal experiments. Drug administration was started after 3 weeks of hyperlipidemia induction, and the animals were divided into four groups (n=6) as shown in Table 3 below.
(§1) Group 3 (hyperlipidemia-induced group+group administered with 3.25 nmol/kg of SEQ ID NO: 25-Fc conjugate) was fed with a high-fat diet to induce hyperlipidemia, and then administered with 3.25 nmol/kg of the SEQ ID NO: 25-Fc conjugate (prepared in Example 4) once a week at an injection dose of 5 ml/kg.
as §1, with “4” for “3”, “8.96” for “3.25”, “23-Fc” for “25-Fc”, “3)” for “4)”
Saline or the drug was administered into each group (n=6) for 2 weeks, and then the effects thereof on a reduction in lipid levels were analyzed.
Blood was collected from the hamsters which were administered or not administered with the long-acting oxyntomodulin derivative as described in Example 5-1, and the lipid levels of the blood were analyzed using HITACHI 7020.
FIGS. 1 to 5 show the change in blood triglyceride levels (FIG. 1), the change in blood total cholesterol levels (FIG. 2), the change in LDL-cholesterol levels (FIG. 3), blood HDL-cholesterol levels (FIG. 4), and the change in the blood HDL/LDL-cholesterol ratio (FIG. 5). The obtained results were statistically processed, and the mean values and the standard deviations of the mean values were calculated. In the verification of significance between the groups (n=6), data were statistically processed using Dunnett's test of one-way ANOVA, and a value of p<0.05 was considered statistically significant.

[2] = tested on: high-fat diet-induced hyperlipidemia hamsters; assay: Blood lipid levels in high-fat diet hamsters, comparison with VICTOZA (Example 6); assay type: in vivo, Golden Syrian hamsters; conditions: vs 35.5 nmol/kg VICTOZA s.c., 3.25 nmol/kg SEQ ID NO: 25-Fc or 8.96 nmol/kg SEQ ID NO: 23-Fc s.c.
Description: The effect of reducing lipid levels was compared between the oxyntomodulin derivative conjugate and known VICTOZA®.
As described in Example 5, hamsters were divided into a normal hamster group and hamster groups fed with a high-fat diet. The normal hamster group was administered subcutaneously with 5 ml/kg of DPBS once or more a week. The hamster groups fed with high-fat diet were divided into a group administered subcutaneously with 5 ml/kg of DPBS once or more a week, a group administered subcutaneously with 35.5 nmol/kg of VICTOZA® once or more a week, a group administered subcutaneously with 3.25 nmol/kg of the SEQ ID NO: 25-Fc conjugate, and a group administered subcutaneously with 8.96 nmol/kg of the SEQ ID NO:23-Fc conjugate, and the blood lipid levels of the groups were analyzed.

[3] = molecular target: T1, human GLP-1 receptor (Homo sapiens, UniProt P43220); assay: cAMP response in CHO cells expressing GLP-1 receptor (CHO/GLP-1R); assay type: cell-based
T1 construct: Using a portion corresponding to the ORF (open reading frame) of cDNA; expressed in transfected cells; host or cells: CHO DG44
T1 sequence (P43220 24-463): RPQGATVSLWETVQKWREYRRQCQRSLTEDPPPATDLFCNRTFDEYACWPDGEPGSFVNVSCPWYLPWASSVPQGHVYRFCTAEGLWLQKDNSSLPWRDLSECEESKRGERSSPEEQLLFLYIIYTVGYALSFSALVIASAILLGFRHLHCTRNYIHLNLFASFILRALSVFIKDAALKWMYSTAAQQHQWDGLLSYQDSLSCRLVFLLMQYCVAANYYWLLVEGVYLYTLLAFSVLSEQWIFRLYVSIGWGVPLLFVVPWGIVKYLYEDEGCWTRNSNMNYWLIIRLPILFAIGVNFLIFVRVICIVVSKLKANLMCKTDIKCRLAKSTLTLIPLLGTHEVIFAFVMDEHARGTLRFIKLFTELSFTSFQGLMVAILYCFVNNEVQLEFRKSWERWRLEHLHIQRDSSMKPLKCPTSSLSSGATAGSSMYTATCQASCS
Description: The PCR product was cloned into the known animal cell expression vector x0GC/dhfr, thereby constructing the recombinant vector x0GC/GLP-1R.
(§2) The recombinant vector x0GC/GLP-1R was introduced into a CHO DG44 cell line, cultured in DMEM/F12 (10% FBS) medium, using lipofectamine (Invitrogene, USA), to obtain a transformant. The transformant was incubated in a selective medium containing 1 mg/mL G418 and 10 nM methotraxate, and monoclonal cell lines were selected therefrom.
(§3) The cultured cells were washed with KRB buffer, suspended in 40 ml of 1 mM IBMX-containing KRB buffer, and then allowed to stand at room temperature for 5 minutes. […] Then, 20 ml of cell lysis buffer was added to lyse the cells, and the concentration of cAMP in each of the cell lysates was measured using a cAMP assay kit (Molecular Device, USA).

[4] = molecular target: T2, human glucagon receptor (Homo sapiens, UniProt P47871); assay: cAMP response in CHO cells expressing glucagon receptor (CHO/GCGR); assay type: cell-based
T2 construct: Using a portion corresponding to the ORF (open reading frame) of cDNA; expressed in transfected cells; host or cells: CHO DG44
T2 sequence (P47871 26-477): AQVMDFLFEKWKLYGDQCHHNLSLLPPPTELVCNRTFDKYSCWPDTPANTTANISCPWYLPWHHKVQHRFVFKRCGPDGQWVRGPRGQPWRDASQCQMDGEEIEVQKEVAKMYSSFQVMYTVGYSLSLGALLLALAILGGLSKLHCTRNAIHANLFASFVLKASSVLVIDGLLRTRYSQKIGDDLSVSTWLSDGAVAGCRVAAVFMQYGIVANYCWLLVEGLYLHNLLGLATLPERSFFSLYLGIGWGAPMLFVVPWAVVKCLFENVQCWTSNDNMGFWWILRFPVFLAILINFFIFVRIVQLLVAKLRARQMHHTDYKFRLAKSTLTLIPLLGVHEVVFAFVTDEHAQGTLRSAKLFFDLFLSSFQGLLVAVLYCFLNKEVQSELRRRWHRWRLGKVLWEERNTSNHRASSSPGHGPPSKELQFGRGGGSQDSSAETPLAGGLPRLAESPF
Description: The PCR product was cloned into the known animal cell expression vector x0GC/dhfr, thereby constructing the recombinant vector x0GC/GCGR.
as §2, with “x0GC/GCGR” for “x0GC/GLP-1R”
as §3

Row | Compound | blood triglyceride levels ([1]; FIG. 1) | blood total cholesterol levels ([1]; FIG. 2) | blood LDL-cholesterol levels ([1]; FIG. 3) | blood HDL-cholesterol levels ([1]; FIG. 4) | blood HDL/LDL-cholesterol ratio ([1]; FIG. 5) | blood total cholesterol levels compared to VICTOZA ([2]; FIG. 6) | blood LDL-cholesterol level compared to VICTOZA ([2]; FIG. 7) | blood HDL-cholesterol levels compared to VICTOZA ([2]; FIG. 8) | HDL/LDL-cholesterol ratio compared to VICTOZA ([2]; FIG. 9) | blood triglyceride levels compared to VICTOZA ([2]; FIG. 10) | EC50 [3] [nM] | EC50 [4] [nM]
1 | SEQ ID NO: 25-Fc conjugate: oxyntomodulin derivative of SEQ ID NO: 25 linked at cysteine 30 via MAL-10K-ALD PEG to immunoglobulin Fc (Example 4) (HXQGTFTSDYSKYLDEKRAKEFVQWLMNTC; PEG linker at Cys30 to immunoglobulin Fc; MOD_RES (2)..(2) Aib; (16)..(20) Ring formation between residues) | significantly decreased | significantly decreased | significantly decreased | significant increase | significant increase | decrease | decrease | significant increases | significant increases | decrease | – | –
2 | CSCC[C@H](NC(=O)[C@H](CC(C)C)NC(=O)[C@H](Cc1c[nH]c2ccccc12)NC(=O)[C@H](CS)NC(=O)[C@@H](NC(=O)[C@H](Cc1ccccc1)NC(=O)[C@H](CCC(=O)O)NC(=O)[C@H](CCCCN)NC(=O)[C@H](C)NC(=O)[C@H](CCCNC(=N)N)NC(=O)[C@H](CCCCN)NC(=O)[C@H](CCC(=O)O)NC(=O)[C@H](CC(=O)O)NC(=O)[C@H](CC(C)C)NC(=O)[C@H](Cc1ccc(O)cc1)NC(=O)[C@H](CCCCN)NC(=O)[C@H](CO)NC(=O)[C@H](Cc1ccc(O)cc1)NC(=O)[C@H](CC(=O)O)NC(=O)[C@H](CO)NC(=O)[C@@H](NC(=O)[C@H](Cc1ccccc1)NC(=O)[C@@H](NC(=O)CNC(=O)[C@H](CCC(N)=O)NC(=O)C(C)(C)NC(=O)[C@@H](N)Cc1c[nH]cn1)[C@@H](C)O)[C@@H](C)O)C(C)C)C(=O)N[C@@H](CC(N)=O)C(=O)N[C@H](C(=O)O)[C@@H](C)O [SEQ ID NO: 23] (H-H[Aib]QGTFTSDYSKYLDEKRAKEFVCWLMNT-OH; C-terminus assumed) | – | – | – | – | – | – | – | – | – | – | 2.46 | 5.8
